For the assay, the target named is human Somatostatin 4 receptor (SSTR4) (Homo sapiens (Human), UniProt P31391). Put plainly: cAMP assay with human Somatostatin 4 receptor. Type of assay: cell-based. As to conditions: hSSTR4 expressing H4 cells, inhibition of Forskolin-stimulated cAMP; read-out: SSTR4 agonism EC50. The method, then: Method description for cAMP assay with human Somatostatin 4 receptor.
Chain of human Somatostatin 4 receptor (SSTR4) (P31391 whole entry): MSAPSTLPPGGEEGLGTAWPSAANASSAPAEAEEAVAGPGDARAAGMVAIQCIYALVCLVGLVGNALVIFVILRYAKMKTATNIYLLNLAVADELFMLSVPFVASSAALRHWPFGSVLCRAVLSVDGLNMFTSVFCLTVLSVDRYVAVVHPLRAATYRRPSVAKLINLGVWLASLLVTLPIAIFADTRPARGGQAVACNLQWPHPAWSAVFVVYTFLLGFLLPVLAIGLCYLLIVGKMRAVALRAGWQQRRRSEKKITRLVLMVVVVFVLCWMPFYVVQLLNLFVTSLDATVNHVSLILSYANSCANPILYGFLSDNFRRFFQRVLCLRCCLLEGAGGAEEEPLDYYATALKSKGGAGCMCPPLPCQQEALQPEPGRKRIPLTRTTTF
The activation of the SSTR4 receptor (Gi coupled) causes an inhibition of intracellular cAMP after stimulation with Forskolin, which can be quantifiable by use of a suitable assay Kit and an adequate plate reader. This technique is used to characterize pharmacological effects of the SSTR4 receptor agonists by use of hSSTR4 expressing H4 cells.
Compounds are dissolved and diluted in DMSO. The final test solution contains […]. The cAMP standard (Lance cAMP 384 Kit; PerkinElmer, Cat #AD0264) is prepared in assay buffer (HBSS with 0.1% BSA, 5 mM HEPES, […], pH 7.4) containing 1% DMSO and the cAMP standard curve is included at least on one plate. Cells are centrifuged and suspended in assay buffer (incl. 1:100 diluted Alexa antibody).
For the assay 5 μl of a cell suspension (approximately 5000 cells/well)—incl. Alexa antibody (diluted 1:100) are added into a 384 well MTP microtitre plate excepting one row or column (depending on the plate layout), which is reserved for the standard curve. Then 2 μl of compound sample is added as concentration response curve (e.g. 1e-5 M to 6e-10 M), usually in triplicates. Each assay contains incubations with vehicle controls instead of compound as controls for non-inhibited cAMP generation (100% CTL; ‘high values’) and incubations with 1 μM Somatosatin as controls for full inhibition and background (0% CTL; ‘low values’). After approximately 10-15 min incubation time 3 μl Forskolin (dissolved in DMSO, final conc. 15 μM) is added. Then the plates are shaken briefly and incubated for 60 min at room temperature. After 60 min 10 μl of the detection mix is added into all wells followed by an additional incubation period of 1 h. The plates are read in a suitable plate reader.
The analysis of the data is based on the “ratio” of the time-resolved fluorescence measurements of donor and acceptor fluorophore (Ex: 320 nm; Em1: 665 nm; Em2: 615 nm; ratio 665/615). From this ratio, cAMP concentrations are calculated from standard curve and the EC50 is estimated by least square curve fit program.
As to `Cc1cc2cccnc2c(C(C)(C)NC(=O)c2cccc3c2OCCNC3)n1` [Example 1], the EC50 is 58.1 nM.

Turning to `CC(NC(=O)c1cccc2c1OCCNC2)c1nc2ccccc2[nH]1` (centres unmarked) [Example 2], the concentration for a half-maximal effect (EC50) was determined as 302 nM. Consider `CC(C)(NC(=O)c1cccc2c1OCCNC2)c1nc2ccc(Cl)cc2[nH]1` [Example 3], for which the half-maximal effective concentration (EC50) came to 45.1 nM.

For `O=C(NC1(c2nc3ccc(Cl)cc3[nH]2)CC1)c1cccc2c1OCCNC2` [Example 4], the EC50 is 342 nM.

For `O=C(NC1(c2nc3ccc(Cl)cc3[nH]2)CCOC1)c1cccc2c1OCCNC2` (centres unmarked) [Example 5], the 50% effective concentration (EC50) stood at 750 nM. Take `CC(C)(NC(=O)c1cccc2c1OCCNC2)c1cccc2cccnc12` [Example 10]: the half-maximal effective concentration (EC50) was determined as 42.1 nM.

In the case of `CC(C)(NC(=O)c1cccc2c1OCCNC2)c1cccc2cnccc12` [Example 11], the EC50 amounted to 423 nM. The value for `CC(C)(NC(=O)c1cccc2c1OCCNC2)c1cccc2ncccc12` [Example 12] was 98.4 nM; that for `CC(C)(COc1cnccc1C(F)(F)F)NC(=O)c1cccc2c1OCCNC2` [Example 14] was 132 nM. The value for `Cc1cccnc1OCC(C)(C)NC(=O)c1cccc2c1OCCNC2` [Example 15] was 28.1 nM; that for `CC(C)(NC(=O)c1cccc2c1OCCNC2)c1ccc(F)cc1` [Example 16] was 33 nM.

`Cn1nc(C(C)(C)NC(=O)c2cncc3c2OCCNC3)c2ccccc21` [Example 21]: the concentration giving a half-maximal response (EC50) came out at 35.5 nM.

Turning to `Cn1nc(C(C)(C)NC(=O)c2cccc3c2OCCNC3)c2cccc(C(F)(F)F)c21` [Example 25], the EC50 was found to be 6.8 nM. On to `Cc1cc2ccccc2c(C(C)(C)NC(=O)c2ccnc3c2OCCNC3)n1` [Example 30], for which the EC50 was 19 nM. As to `Cc1cc2ccccc2c(C(C)(C)NC(=O)c2cncc3c2OCCNC3)n1` [Example 31], the EC50 turned out to be 37 nM. As for `CC(C)(NC(=O)c1cccc2c1OCCNC2)c1noc2c(F)cccc12` [Example 34], the EC50 was 18.2 nM. The result for `CC(C)(NC(=O)c1nccc2c1OCCNC2)c1noc2c(F)cccc12` [Example 35] reads 350 nM; that for `CC(C)(NC(=O)c1ccnc2c1OCCNC2)c1noc2c(F)cccc12` [Example 36], 380 nM. `CC(C)(NC(=O)c1cncc2c1OCCNC2)c1noc2c(F)cccc12` [Example 37]: the EC50 amounted to 1600 nM. For `Cc1cc(F)cn2c(C(C)(C)NC(=O)c3cccc4c3OCCNC4)ncc12` [Example 52], the concentration for a half-maximal effect (EC50) was determined as 8.7 nM. As for `Cc1cccn2c(C3(NC(=O)c4cccc5c4OCCNC5)CCC3)ncc12` [Example 54], the concentration giving a half-maximal response (EC50) was determined as 15.2 nM.

With `Cc1cccn2c(C(C)(NC(=O)c3cccc4c3OCCNC4)C3CC3)ncc12` (centres unmarked) [Example 55], the half-maximal effective concentration (EC50) amounted to 134 nM.

For `Cc1cccn2c(C(C)(CC(C)C)NC(=O)c3cccc4c3OCCNC4)ncc12` (centres unmarked) [Example 56], the EC50 came to 1980 nM.

With `Cc1cccn2c(C3(NC(=O)c4cccc5c4OCCNC5)CCOC3)ncc12` (centres unmarked) [Example 57], the EC50 was found to be 354 nM. For `Cc1cccn2c(C3(NC(=O)c4cccc5c4OCCNC5)CCOCC3)ncc12` [Example 58], the EC50 turned out to be 2480 nM. Consider `CC(C)(NC(=O)c1cccc2c1OCCNC2)c1ncc2c(OC(F)(F)F)cccn12` [Example 59], for which the EC50 was found to be 30.5 nM. The result for `Cc1cccn2c([C@H](C)NC(=O)c3cccc4c3OCCNC4)ncc12` [Example 60] reads 94.4 nM; that for `CC(C)(NC(=O)c1cccc2c1OCCNC2)c1nc(C(F)(F)F)c2c(F)cccn12` [Example 63], 32.3 nM. Take `Cc1nc(C(C)(C)NC(=O)c2cccc3c2OCCNC3)c2cccc(C)c2n1` [Example 65]: the EC50 worked out at 21.4 nM. For `CC(C)(NC(=O)c1cccc2c1OCCNC2)c1ncnc2c(F)cccc12` [Example 66], the EC50 worked out at 30 nM. As to `Cc1nc(C(C)(C)NC(=O)c2cccc3c2OCCNC3)c2cccc(F)c2n1` [Example 67], the EC50 came to 75 nM. For the molecule `Cc1cccn2c(C(C)(C)NC(=O)c3cccc4c3OCCNC4)nnc12` [Example 68], the 50% effective concentration (EC50) turned out to be 37.9 nM.
